Data on 22 molecules can be found in PubChem BioAssay AID256 (DTP/NCI, 2004).

Molecules are shown by their SMILES. Inconclusive results and toxic doses are left out.

The experiment concerns CD2F1 mice, L1210 leukemia ip, survival T/C. The experiment is described as follows: NCI In Vivo Anticancer Drug Screen. Data for tumor model L1210 Leukemia (intraperitoneal) in CD2F1 (CDF1) mice. Particulars: endpoint: mean survival time, higher = longer survival. In outline: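 Activity against a transplanted murine tumor was judged by comparing the compound group with a vehicle group. The outcome in the treated animals was divided by that in the controls.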

Where [1] appears, read: dose: 50.0 mg/kg/injection, schedule: Q01DX009 (ip), vehicle: saline with Tween-80.
The mark [2] stands for this setting: dose: 100.0 mg/kg/injection, schedule: Q01DX009 (ip), vehicle: saline with Tween-80.
The mark [3] stands for this setting: dose: 100.0 mg/kg/injection, schedule: Q04DX003 (ip), vehicle: saline with Tween-80.
The mark [4] stands for this setting: dose: 200.0 mg/kg/injection, schedule: Q01DX009 (ip), vehicle: saline with Tween-80.
The mark [5] stands for this setting: dose: 200.0 mg/kg/injection, schedule: Q04DX003 (ip), vehicle: saline with Tween-80.
The mark [6] stands for this setting: dose: 400.0 mg/kg/injection, schedule: Q01DX009 (ip), vehicle: saline with Tween-80.
[7] abbreviates: dose: 100.0 mg/kg/injection, schedule: Q04DX003 (ip), vehicle: saline.
Setting [8] is: dose: 200.0 mg/kg/injection, schedule: Q04DX003 (ip), vehicle: saline.

`C(CC1CO1)CC1OC1CC1CO1` (stereo not drawn): the T/C (dose: 39.0 mg/kg/injection, schedule: Q01DX009 (ip), vehicle: saline) is 109 % of control; the T/C (dose: 75.0 mg/kg/injection, schedule: Q01DX001 (ip), vehicle: saline) was 109 % of control; the T/C (dose: 133.0 mg/kg/injection, schedule: Q01DX009 (ip), vehicle: saline) was 156 % of control; the T/C (dose: 150.0 mg/kg/injection, schedule: Q01DX001 (ip), vehicle: saline) was 119 % of control.
Take `Nc1nc(N)c2cc(CNc3ccc(C(=O)NC(CC(=O)O)C(=O)O)c(Cl)c3)ccc2n1` (stereo not drawn): for the setting “dose: 5.0 mg/kg/injection, schedule: Q01DX001 (ip), vehicle: saline”, the T/C is 160 % of control.
Regarding `O=C(CCl)Nc1cccc2c1CCCC2`, the T/C is 97 % of control under setting [1]; 94 % of control under setting [2]; 98 % of control under setting [3]; 91 % of control under setting [4]; 96 % of control under setting [5].
For `O=[N+]([O-])c1ccc(OCc2ccccc2)cc1`, the T/C is 98 % of control under setting [2], 98 % of control under setting [4] and 98 % of control under setting [6].
On to `CC[NH-].CC[NH-].[Cl][Pt+2][Cl]`, for which the T/C was 115 % of control (dose: 2.5 mg/kg/injection, schedule: Q04DX003 (ip), vehicle: water); 116 % of control (dose: 5.0 mg/kg/injection, schedule: Q04DX003 (ip), vehicle: water); 112 % of control (dose: 10.0 mg/kg/injection, schedule: Q04DX003 (ip), vehicle: water).
Take `C=C=CCCCCCCCC`: the T/C was 102 % of control under setting [3]; 98 % of control under setting [5]; 105 % of control (dose: 400.0 mg/kg/injection, schedule: Q04DX003 (ip), vehicle: saline with Tween-80).
On to `O=C(O)C(=O)O.O=C(O)C(=O)O.OO.OO.[Nb]`, for which the T/C was 93 % of control (dose: 12.5 mg/kg/injection, schedule: Q01DX009 (ip), vehicle: water); 98 % of control (dose: 25.0 mg/kg/injection, schedule: Q01DX009 (ip), vehicle: water); 87 % of control (dose: 50.0 mg/kg/injection, schedule: Q01DX009 (ip), vehicle: water).
Regarding `O=c1[nH]cnc2c1ccn2C1OC(CO)C(O)C1O` (stereo not drawn), the T/C is 111 % of control (dose: 6.25 mg/kg/injection, schedule: Q01DX009 (ip), vehicle: saline); 106 % of control (dose: 6.25 mg/kg/injection, schedule: Q04DX003 (ip), vehicle: saline sonified); 90 % of control (dose: 12.5 mg/kg/injection, schedule: Q01DX009 (ip), vehicle: saline); 109 % of control (dose: 12.5 mg/kg/injection, schedule: Q04DX003 (ip), vehicle: saline sonified); 121 % of control (dose: 16.7 mg/kg/injection, schedule: Q04DX003 (ip), vehicle: saline sonified); 113 % of control (dose: 25.0 mg/kg/injection, schedule: Q04DX003 (ip), vehicle: saline sonified). In addition, the T/C (dose: 37.5 mg/kg/injection, schedule: Q04DX003 (ip), vehicle: saline sonified) was 119 % of control.
Regarding `COC1=C(N2CC2)C(=O)C(OC)=C(N2CC2)C1=O`, the T/C runs as follows: (dose: 0.9 mg/kg/injection, schedule: Q01DX015 (ip), vehicle: saline) 115 % of control; (dose: 1.3 mg/kg/injection, schedule: Q01DX015 (ip), vehicle: saline) 119 % of control; (dose: 3.0 mg/kg/injection, schedule: Q01DX015 (ip), vehicle: saline) 113 % of control.
For the molecule `C=C1N(c2ccccc2)C(=O)OC1(C)C`, the T/C is, setting by setting: (dose: 100.0 mg/kg/injection, schedule: Q04DX002 (ip), vehicle: saline with Tween-80) 112 % of control; (dose: 200.0 mg/kg/injection, schedule: Q04DX002 (ip), vehicle: saline with Tween-80) 112 % of control; (dose: 400.0 mg/kg/injection, schedule: Q04DX002 (ip), vehicle: saline with Tween-80) 122 % of control.
Consider `CCCCOc1c(OCCCC)c(=O)c1=O`, for which the T/C is 108 % of control (dose: 100.0 mg/kg/injection, schedule: Q01DX001 (ip), vehicle: saline); 102 % of control (dose: 178.0 mg/kg/injection, schedule: Q01DX001 (ip), vehicle: saline); 108 % of control (dose: 200.0 mg/kg/injection, schedule: Q01DX001 (ip), vehicle: saline); 96 % of control (dose: 267.0 mg/kg/injection, schedule: Q01DX001 (ip), vehicle: saline); 106 % of control (dose: 400.0 mg/kg/injection, schedule: Q01DX001 (ip), vehicle: saline); 98 % of control (dose: 600.0 mg/kg/injection, schedule: Q01DX001 (ip), vehicle: saline).
Turning to `CC(C)(C)N1CCC1C(O)c1ccccc1` (stereo not drawn), the T/C runs as follows: (dose: 25.0 mg/kg/injection, schedule: Q04DX003 (ip), vehicle: saline with Tween-80) 100 % of control; (dose: 50.0 mg/kg/injection, schedule: Q04DX003 (ip), vehicle: saline with Tween-80) 102 % of control; (dose: 100.0 mg/kg/injection, schedule: Q01DX001 (ip), vehicle: saline with Tween-80) 98 % of control; under setting [3], 95 % of control.
On to `NC(=O)/C=C/C1=NCCC1`, for which the T/C is, setting by setting: (dose: 7.5 mg/kg/injection, schedule: Q04DX003 (ip), vehicle: saline with Tween-80) 97 % of control; (dose: 15.0 mg/kg/injection, schedule: Q04DX003 (ip), vehicle: saline with Tween-80) 97 % of control; (dose: 30.0 mg/kg/injection, schedule: Q04DX003 (ip), vehicle: saline with Tween-80) 102 % of control; under setting [2], 100 % of control; under setting [4], 103 % of control; under setting [6], 103 % of control.
Take `CNC(=O)Oc1ccc2c(c1)OCO2`: the T/C is, setting by setting: (dose: 50.0 mg/kg/injection, schedule: Q01DX009 (ip), vehicle: saline) 96 % of control; (dose: 100.0 mg/kg/injection, schedule: Q01DX009 (ip), vehicle: saline) 112 % of control; (dose: 200.0 mg/kg/injection, schedule: Q01DX009 (ip), vehicle: saline) 100 % of control.
`O=C1/C(=C\c2ccccc2)C2OCC=C3CN4CCC56c7ccccc7N1C5C2C3CC46` (stereo not drawn): the T/C (dose: 75.0 mg/kg/injection, schedule: Q01DX001 (ip), vehicle: other) was 95 % of control.
Regarding `CN1C(=O)CC(c2ccc(N3C(=O)C=CC3=O)cc2)C1=O` (stereo not drawn), the T/C by setting is: (dose: 6.25 mg/kg/injection, schedule: Q04DX002 (ip), vehicle: saline with Tween-80) 96 % of control; (dose: 12.5 mg/kg/injection, schedule: Q04DX002 (ip), vehicle: saline with Tween-80) 103 % of control; (dose: 25.0 mg/kg/injection, schedule: Q04DX002 (ip), vehicle: saline with Tween-80) 96 % of control.
On to `O=C(O)/C=C/C(=O)Nc1ccccc1[N+](=O)[O-]`, for which the T/C is 102 % of control under setting [1], 104 % of control under setting [2] and 94 % of control under setting [4].
In the case of `CC(=O)NCCCN1CCOCC1`, the T/C reads like this: under setting [7], 96 % of control; under setting [8], 104 % of control; (dose: 400.0 mg/kg/injection, schedule: Q04DX003 (ip), vehicle: saline) 98 % of control.
Turning to `CN1C(C(=O)O)CCC1C(=O)O` (stereo not drawn), the T/C reads like this: under setting [7], 96 % of control; under setting [8], 98 % of control.
Turning to `CC(Cc1ccccc1)NC(N)=O` (stereo not drawn), the T/C runs as follows: (dose: 12.5 mg/kg/injection, schedule: Q01DX009 (ip), vehicle: saline with Tween-80) 100 % of control; (dose: 25.0 mg/kg/injection, schedule: Q01DX009 (ip), vehicle: saline with Tween-80) 97 % of control; under setting [1], 92 % of control.
Turning to `Cc1c(C(=O)O)nc(/C=C/C(Cl)(Cl)Cl)[nH]c1=O`, the T/C by setting is: (dose: 25.0 mg/kg/injection, schedule: Q01DX005 (ip), vehicle: other) 104 % of control; (dose: 50.0 mg/kg/injection, schedule: Q01DX005 (ip), vehicle: other) 103 % of control; (dose: 100.0 mg/kg/injection, schedule: Q01DX005 (ip), vehicle: other) 97 % of control; (dose: 200.0 mg/kg/injection, schedule: Q01DX005 (ip), vehicle: other) 106 % of control; (dose: 400.0 mg/kg/injection, schedule: Q01DX005 (ip), vehicle: other) 95 % of control.
For the molecule `CC(=O)CC(C)=NCC(C)N=C(C)CC(C)=O.c1cc[c]([Sn][c]2ccccc2)cc1` (stereo not drawn), the T/C runs as follows: (dose: 2.5 mg/kg/injection, schedule: Q01DX009 (ip), vehicle: saline with Tween-80) 93 % of control; (dose: 5.0 mg/kg/injection, schedule: Q01DX001 (ip), vehicle: saline with Tween-80) 98 % of control; (dose: 5.0 mg/kg/injection, schedule: Q01DX009 (ip), vehicle: saline with Tween-80) 107 % of control; (dose: 10.0 mg/kg/injection, schedule: Q01DX001 (ip), vehicle: saline with Tween-80) 103 % of control.
